# Measurements: US6531289B1, “Regulated gene expression in yeast and method of use” (Anadys Pharmaceuticals, Inc., priority 1997, dated 2003)
# Experiments:
# CTY145 = details: CTY145, after 16 hours of growth
# Procedure: (§1) For assaying the effects of copper ions on recombinant yeast strains, wild type and recombinant strains are grown in 5 ml of CSM media on a roller drum incubation apparatus at 30° C. for 18 to 20 hours. Cultures are diluted to an A600(absorbance of light at 600 nm) of about 0.02 in 5 ml CSM media without or with various concentrations of CuSO4 (10 μM, 50 μM, 100 μM, 250 μM, 1 mM and 2 mM) for 18 to 20 hours. The A600 of the various samples is read and recorded.
# (§2) The copper sensitivity of yeast strain CTY145 was compared with that of ZMY60 by growing each strain in the presence of increasing amounts of added copper and measuring cell number at increasing times.
# ZMY60 = details: ZMY60, after 16 hours of growth
# Procedure: as §1, §2
# [1] = system: copper regulated ALG7 strain; experiment: Drug sensitivity profiling, 96 well copper sulfate x compound dilution plate; format: cell-based, S. cerevisiae; details: ALG7 copper regulated cells, 48 hours at 37° C., growth scored by eye
# Procedure: (§3) In one embodiment, such drug sensitivity is analyzed utilizing the copper regulated strains of the invention according to the following non-limiting method. In a single 96 well assay plate, a serial dilution of copper sulfate is created from right to left. On the same plate a serial dilution of compound is created along the opposite axis to give the final compound and copper concentrations shown in FIG. 12. Each well is inoculated with 10^3 cells ml^−1. Growth is scored by eye after 48 hours incubation at 37° C. As the copper concentration is increased, the level of target expressed is reduced. Consequently, inhibition of growth should occur at a lower compound concentration (FIG. 13, panel a). […] (FIG. 13, panel c).
# (§4) In a single 96 well assay plate, a serial dilution of copper sulfate was created from right to left. On the same plate a serial dilution of compound was created along the opposite axis to give the final compound and copper concentrations. Each well was inoculated with 10^3 cells/mL. Yeast cell growth was scored by eye after 48 hours incubation at 37° C.
# (§5) Plates were setup as described above and inoculated with wild-type, copper regulated ALG7 and copper regulated CHS3 strains. CHS3 encodes chitin synthase and provides a second control. Following 48 hours incubation at 37° C., plates were examined to assess growth (FIG. 16).
# [2] = system: copper regulated CHS3 strain; experiment: as above; format: cell-based, S. cerevisiae; details: CHS3 copper regulated control, 48 hours at 37° C.
# Procedure: as §3, §4, §5
# wild-type strain = experiment: as above; format: cell-based, S. cerevisiae; details: wild type control, 48 hours at 37° C.
# Procedure: as §3, §4, §5
# ALG7 = details: Kukuruzinska et al. 1995; cited from earlier work
# [3] = system: ALG7/alg7 heterozygous diploid S. cerevisiae strain; details: Giaever et al.; cited from earlier work
Compound,highest concentration of copper at which the growth rate was maintained (CTY145),highest concentration of copper at which the log-phase growth rate was maintained unaffected (ZMY60),sensitivity to compound as the copper concentration was increased [1],sensitivity to compound as the copper concentration was increased [2],sensitivity to compound as the copper concentration was increased (wild-type strain),sensitivity to tunicamycin on downregulation of ALG7 expression (ALG7),sensitivity of ALG7/alg7 heterozygous diploid strain [3]
"O=S(=O)([O-])[O-].[Cu+2] [copper, copper sulfate]",1 mM,250 μM,,,,,
tunicamycin,,,increased sensitivity,No increase in sensitivity,No increase in sensitivity,hypersensitivity,increased sensitivity
